For test [1], the system named is Cabbage Looper (Trichoplusia ni, TRIPNI). Nature of the test: Bioassays on Cabbage Looper (CL), 128-well diet tray assay. The format is in vivo. Conditions: Trichoplusia ni. A digest of the protocol: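 Second-instar larvae (1–5 per well) placed on artificial diet surface-treated with 50 μg/cm^2 test molecule applied in 90:10 acetone-water and dried. Held at 25° C., 14:10 light-dark, for five to seven days. Percent mortality scored per well and averaged over eight wells.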

The test system of test [2] is Beet Armyworm (Spodoptera exigua, LAPHEG). Nature of the test: Bioassays on Beet Armyworm (BAW), 128-well diet tray assay. The following applies: Spodoptera exigua. The format is in vivo. A digest of the protocol:
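Test molecule was dissolved in 90:10 acetone-water and applied at 50 μg/cm^2 onto artificial diet in eight wells, then dried. Second instar larvae, one to five per well, were added, and trays were kept vented at 25° C. with a 14:10 photoperiod for five to seven days before mortality was recorded.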

Where [3] appears, read: Cabbage Looper, rating class, read-out: CL.
Setting [4] is: Beet Armyworm, rating class, read-out: BAW.
The mark [5] stands for this setting: Table ABC: Biological Results, species CL, read-out: CL.
The mark [6] stands for this setting: Table ABC: Biological Results, species BAW, read-out: BAW.
Setting [7] is: Cabbage Looper, Table ABC / ABC-DP rating, read-out: CL rating.
Where [8] appears, read: Beet Armyworm, Table ABC / ABC-DP rating, read-out: BAW rating.

We go through 21 compounds from patent publication US20250228239A1, “MOLECULES HAVING PESTICIDAL UTILITY, AND INTERMEDIATES, COMPOSITIONS, AND PROCESSES, RELATED THERETO” (priority 2024, published 2025).

Like-named read-outs stand apart in the source and are kept apart here.

Take `O=C(Nc1ccc(F)c(NC(=O)C(F)(F)F)c1)c1cc(NC(=O)[C@H]2[C@H](c3cc(Cl)cc(Cl)c3)C2(Cl)Cl)ccc1Cl` (relative stereo) [F1641, trans-2-Chloro-5-(2,2-dichloro-3-(3,5-dichlorophenyl)cyclopropane-1-carboxamido)-N-(4-fluoro-3-(2,2,2-trifluoroacetamido)phenyl)benzamide]: the pest or weed control at 50 µg/cm2 in test [1] (setting [3]) and in test [2] (setting [4]) was 50 to 100% in each case.
For the compound `O=C(Nc1ccc(F)c(NCc2ccc([N+](=O)[O-])cc2)c1F)c1cc(NC(=O)[C@H]2[C@H](c3ccc(F)c(C(F)(F)F)c3)C2(Cl)Cl)ccc1Cl` [F1296, 2-Chloro-5-((1R,3R)-2,2-dichloro-3-(4-fluoro-3-(trifluoromethyl)phenyl)cyclopropane-1-carboxamido)-N-(2,4-difluoro-3-((4-nitrobenzyl)amino)phenyl)benzamide], the pest or weed control at 50 µg/cm2 in test [1] (setting [5]) and in test [2] (setting [6]) was 50 to 100% each time.
In the case of `O=C(Nc1c(F)ccc(NC(=O)C2CCCO2)c1F)c1cc(NC(=O)[C@H]2[C@H](c3cc(Cl)c(Cl)c(Cl)c3)C2(Cl)Cl)cc(F)c1F` (stereo partly drawn) [F1778, N-(3-(5-((1R,3R)-2,2-Dichloro-3-(3,4,5-trichlorophenyl)cyclopropane-1-carboxamido)-2,3-difluorobenzamido)-2,4-difluorophenyl)tetrahydrofuran-2-carboxamide], the pest or weed control at 50 µg/cm2 in test [1] (setting [7]) and in test [2] (setting [8]) was 50 to 100% each time.
For the compound `Nc1cc(NC(=O)c2cc(NC(=O)[C@H]3[C@H](c4ccc(F)c(C(F)(F)F)c4)C3(Cl)Cl)cc(F)c2Cl)c(F)cc1F` [F1398, N-(5-Amino-2,4-difluorophenyl)-2-chloro-5-((1R,3R)-2,2-dichloro-3-(4-fluoro-3-(trifluoromethyl)phenyl)cyclopropane-1-carboxamido)-3-fluorobenzamide], the pest or weed control at 50 µg/cm2 in test [1] (setting [3]) and in test [2] (setting [4]) was 50 to 100% in each case.
Turning to `Nc1c(F)ccc(NC(=O)c2cc(NC(=O)[C@H]3[C@H](c4cc(Cl)cc(Cl)c4)C3(F)F)ccc2Cl)c1F` (relative stereo) [F1080, trans-N-(3-Amino-2,4-difluorophenyl)-2-chloro-5-(3-(3,5-dichlorophenyl)-2,2-difluorocyclopropane-1-carboxamido)benzamide], the pest or weed control at 50 µg/cm2 in test [1] (setting [5]) and in test [2] (setting [6]) was 50 to 100% throughout.
In the case of `CCNC(=O)c1cc(NC(=O)[C@H]2[C@H](c3ccc(F)c(Cl)c3)C2(Cl)Cl)cc(Cl)c1C` (relative stereo) [F2041, trans-3-Chloro-5-(2,2-dichloro-3-(3-chloro-4-fluorophenyl)cyclopropane-1-carboxamido)-N-ethyl-2-methylbenzamide], the pest or weed control at 50 µg/cm2 in test [1] (setting [7]) and in test [2] (setting [8]) was 50 to 100% each time.
Take `Nc1c(F)ccc(NC(=O)c2cc(NC(=O)[C@H]3[C@H](c4ccc(Cl)c(Cl)c4)C3(Cl)Cl)cc(F)c2Cl)c1F` [F1284, N-(3-Amino-2,4-difluorophenyl)-2-chloro-5-((1R,3R)-2,2-dichloro-3-(3,4-dichlorophenyl)cyclopropane-1-carboxamido)-3-fluorobenzamide]: the pest or weed control at 50 µg/cm2 in test [1] (setting [5]) and in test [2] (setting [6]) was 50 to 100% throughout.
For `O=C(NNc1ccc(Cl)c(C(F)(F)F)c1)c1cc(NC(=O)[C@H]2[C@H](c3cc(Cl)cc(Cl)c3)C2(Cl)Cl)ccc1Cl` (relative stereo) [F2501, trans-2,2-dichloro-N-(4-chloro-3-(2-(4-chloro-3-(trifluoromethyl)phenyl)hydrazine-1-carbonyl)phenyl)-3-(3,5-dichlorophenyl)cyclopropane-1-carboxamide], the pest or weed control at 50 µg/cm2 in test [1] (setting [7]) and in test [2] (setting [8]) was 50 to 100% throughout.
`CC(=O)Nc1ccc(F)c(NC(=O)c2cc(NC(=O)[C@H]3[C@H](c4ccc(Cl)c(Cl)c4)C3(Cl)Cl)cc(F)c2F)c1F` [F1575, N-(3-Acetamido-2,6-difluorophenyl)-5-((1R,3R)-2,2-dichloro-3-(3,4-dichlorophenyl)cyclopropane-1-carboxamido)-2,3-difluorobenzamide]: the pest or weed control at 50 µg/cm2 in test [1] (setting [3]) and in test [2] (setting [4]) was 50 to 100% throughout.
Consider `O=C(Nc1ccc(F)c(NC(=O)C(F)F)c1F)c1cc(NC(=O)[C@H]2[C@H](c3ccc(F)c(C(F)(F)F)c3)C2(Cl)Cl)cc(F)c1F` [F1571, 5-((1R,3R)-2,2-Dichloro-3-(4-fluoro-3-(trifluoromethyl)phenyl)cyclopropane-1-carboxamido)-N-(3-(2,2-difluoroacetamido)-2,4-difluorophenyl)-2,3-difluorobenzamide], for which the pest or weed control at 50 µg/cm2 in test [1] (setting [3]) and in test [2] (setting [4]) was 50 to 100% in each case.
As for `O=C(Nc1ccc(Br)cc1F)c1cc(NC(=O)[C@H]2[C@H](c3cc(Cl)cc(Cl)c3)C2(Cl)Cl)ccc1Cl` (relative stereo) [F1306, trans-N-(4-Bromo-2-fluorophenyl)-2-chloro-5-(2,2-dichloro-3-(3,5-dichlorophenyl)cyclopropane-1-carboxamido)benzamide], the pest or weed control at 50 µg/cm2 in test [1] (setting [5]) and in test [2] (setting [6]) was 50 to 100% in each case.
On to `O=C(Nc1ccc(F)cc1)c1cc(NC(=O)[C@H]2[C@H](c3cc(Cl)cc(Cl)c3)C2(Cl)Cl)ccc1F` (single isomer, unassigned) [F1374], for which the pest or weed control at 50 µg/cm2 in test [1] (setting [5]) and in test [2] (setting [6]) was 50 to 100% each time.
Take `O=C(CC1CC1)NNC(=O)c1cc(NC(=O)[C@H]2[C@H](c3cc(Cl)cc(Cl)c3)C2(Cl)Cl)ccc1Cl` (relative stereo) [F2528, trans-2,2-Dichloro-N-(4-chloro-3-(2-(2-cyclopropylacetyl)hydrazine-1-carbonyl)phenyl)-3-(3,5-dichlorophenyl)cyclopropane-1-carboxamide]: the pest or weed control at 50 µg/cm2 in test [1] (setting [7]) and in test [2] (setting [8]) was 50 to 100% in each case.
For `CC(F)(F)CCC(=O)Nc1c(F)ccc(NC(=O)c2cc(NC(=O)[C@H]3[C@H](c4ccc(Cl)c(Cl)c4)C3(Cl)Cl)ccc2Cl)c1F` [F1860, 2-Chloro-5-((1R,3R)-2,2-dichloro-3-(3,4-dichlorophenyl)cyclopropane-1-carboxamido)-N-(3-(4,4-difluoropentanamido)-2,4-difluorophenyl)benzamide], the pest or weed control at 50 µg/cm2 in test [1] (setting [7]) and in test [2] (setting [8]) was 50 to 100% each time.
Turning to `C=CCN(C(=O)c1cc(NC(=O)[C@H]2[C@H](c3cc(Cl)cc(Cl)c3)C2(Cl)Cl)ccc1Cl)c1ccc(F)cc1C#N` (relative stereo) [F1055, trans-N-Allyl-2-chloro-N-(2-cyano-4-fluorophenyl)-5-(2,2-dichloro-3-(3,5-dichlorophenyl)cyclopropane-1-carboxamido)benzamide], the pest or weed control at 50 µg/cm2 in test [1] (setting [5]) and in test [2] (setting [6]) was 50 to 100% each time.
Regarding `O=C(NNc1ccc(Cl)c(Cl)c1)c1cc(NC(=O)[C@H]2[C@H](c3cc(Cl)cc(Cl)c3)C2(Cl)Cl)ccc1Cl` (relative stereo) [F2560, trans-2,2-Dichloro-N-(4-chloro-3-(2-(3,4-dichlorophenyl)hydrazine-1-carbonyl)phenyl)-3-(3,5-dichlorophenyl)cyclopropane-1-carboxamide], the pest or weed control at 50 µg/cm2 in test [1] (setting [7]) and in test [2] (setting [8]) was 50 to 100% throughout.
As to `O=C(Nc1ccc(F)c(NC(=O)C(Cl)(Cl)Cl)c1F)c1cc(NC(=O)[C@H]2[C@H](c3ccc(Cl)c(Cl)c3)C2(Cl)Cl)ccc1Cl` [F1063, 2-Chloro-5-((1R,3R)-2,2-dichloro-3-(3,4-dichlorophenyl)cyclopropane-1-carboxamido)-N-(2,4-difluoro-3-(2,2,2-trichloroacetamido)phenyl)benzamide], the pest or weed control at 50 µg/cm2 in test [1] (setting [5]) and in test [2] (setting [6]) was 50 to 100% throughout.
In the case of `O=C(Nc1cc(NC(=O)C(F)F)c(F)cc1F)c1cc(NC(=O)[C@H]2[C@H](c3ccc(Cl)c(Cl)c3)C2(Cl)Cl)ccc1F` [F1509, 5-((1R,3R)-2,2-Dichloro-3-(3,4-dichlorophenyl)cyclopropane-1-carboxamido)-N-(5-(2,2-difluoroacetamido)-2,4-difluorophenyl)-2-fluorobenzamide], the pest or weed control at 50 µg/cm2 in test [1] (setting [3]) and in test [2] (setting [4]) was 50 to 100% throughout.
As for `CC(CC(F)(F)F)C(=O)Nc1c(F)ccc(NC(=O)c2cc(NC(=O)[C@H]3[C@H](c4ccc(Cl)c(Cl)c4)C3(Cl)Cl)ccc2Cl)c1F` (stereo partly drawn) [F1862, 2-Chloro-5-((1R,3R)-2,2-dichloro-3-(3,4-dichlorophenyl)cyclopropane-1-carboxamido)-N-(2,4-difluoro-3-(4,4,4-trifluoro-2-methylbutanamido)phenyl) benzamide], the pest or weed control at 50 µg/cm2 in test [1] (setting [7]) and in test [2] (setting [8]) was 50 to 100% throughout.
Regarding `O=C(Nc1ccc(F)cc1NC(=O)C(F)(F)F)c1cc(NC(=O)[C@H]2[C@H](c3ccc(Cl)c(Cl)c3)C2(Cl)Cl)ccc1Cl` (relative stereo) [F1121, trans-2-Chloro-5-(2,2-dichloro-3-(3,4-dichlorophenyl)cyclopropane-1-carboxamido)-N-(4-fluoro-2-(2,2,2-trifluoroacetamido)phenyl)benzamide], the pest or weed control at 50 µg/cm2 in test [1] (setting [5]) and in test [2] (setting [6]) was 50 to 100% throughout.
`O=C(NCC(F)(F)F)NNC(=O)c1cc(NC(=O)[C@H]2[C@H](c3cc(Cl)cc(Cl)c3)C2(Cl)Cl)ccc1Cl` (relative stereo) [F2535, trans-2-(2-chloro-5-(2,2-dichloro-3-(3,5-dichlorophenyl)cyclopropane-1-carboxamido)benzoyl)-N-(2,2,2-trifluoroethyl)hydrazine-1-carboxamide]: the pest or weed control at 50 µg/cm2 in test [1] (setting [7]) and in test [2] (setting [8]) was 50 to 100% throughout.
